Residues, ends and D or L forms follow the SMILES beside them.
Assay: Body weight in chronic contact dermatitis mouse model
Type: in vivo
Conditions: DNCB mice
Method: The 6-week-old male […] mouse used in the animal experiment is a species of ‘SKH-1 hairless’ and barely has body hair to ensure convenience in intuitively observing the skin condition, of which was divided, for experiment, into 3 groups out of 18 individuals in total (6 individuals for a negative control group/6 individuals for a positive control group/6 individuals for a novel peptide treated group).
After an adaptation period of about 2 weeks, 100 μL of 2,4-dinitrochlorobenzene (DNCB) prepared at a concentration of 1% in solution of acetone: olive oil (3:1) was applied onto the dorsal skin of mice at a certain time every day. After 1 week, if the incidence of contact dermatitis was observed, the DNCB was lowered to 0.5% and applied by 100 μL every 2 days, and the novel peptide was prepared in normal saline at a concentration of 1 mg/ml and applied by 100 μg daily for 3 weeks, while skin condition was observed every week during the experiment.

SMILES: C[C@@H](O)[C@H](NC(=O)[C@@H](N)CCCCN)C(=O)N[C@@H](Cc1ccccc1)C(=O)N[C@@H](CCCNC(=N)N)C(=O)O [novel peptide, KTFR] (H-KTFR-OH)
- changes in the body weight (100 μg applied daily for 3 weeks): no significant changes in the body weight
- stress induced by the peptide (concluded from body weight): no stress was induced

Source: patent publication US20240374673A1, “PHARMACEUTICAL COMPOSITION FOR PREVENTING OR TREATING INFLAMMATORY SKIN DISEASE” (3BIGS CO., LTD., priority 2021, published 2024)
